Assay results as given in patent US5494897A, “Endothelin antagonistic peptide” (Banyu Pharmaceutical Co., Ltd., priority 1993, dated 1996).
Numbered stars: 1 amine (or outer) side, 2 acyl side, 3 side chain; on linkers, the order of the positions; unused ones are H or OH. Square brackets hold non-standard residues; d marks the D form. Peptide text beside a SMILES is read from it. X1 = N#Cc1[nH]c2ccccc2c1C[C@@H](N[*:1])C(=O)[*:2]; dPen = CC(C)(S)[C@@H](N)C(=O)O

Experiments:
ETB receptor = target: T1, ETB receptor (Sus scrofa, UniProt P35463); experiment: Endothelin binding inhibition test (125I-endothelin-1, porcine cerebellum membrane); conditions: 1.1 μM test compound; porcine cerebellum membrane (ETB receptors)
T1 construct: ETB receptors of porcine cerebellum membrane suspension used in the present experiments; from tissue; host or cells: porcine cerebellum membrane preparation
T1 sequence (P35463 27-443): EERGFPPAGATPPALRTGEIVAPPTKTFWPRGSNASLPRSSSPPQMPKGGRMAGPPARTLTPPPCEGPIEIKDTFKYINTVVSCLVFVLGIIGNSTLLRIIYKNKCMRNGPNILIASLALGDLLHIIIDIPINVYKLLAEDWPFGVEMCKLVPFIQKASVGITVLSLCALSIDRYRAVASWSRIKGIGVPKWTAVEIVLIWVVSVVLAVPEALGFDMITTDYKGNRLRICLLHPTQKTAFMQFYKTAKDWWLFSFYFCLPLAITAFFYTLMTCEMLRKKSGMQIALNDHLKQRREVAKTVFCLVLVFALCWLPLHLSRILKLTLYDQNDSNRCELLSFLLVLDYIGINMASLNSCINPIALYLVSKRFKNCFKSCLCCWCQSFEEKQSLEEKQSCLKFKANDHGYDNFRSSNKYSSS
Method: The cerebellum of porcine was homogenized in a buffer solution of 10 mM MOPS, pH 7.4, at 4° C. by a polytron. To the homogenate, sucrose was added to a concentration of 20%, and the mixture was centrifuged at 1,000×g for 15 minutes, and the supernatant was further centrifuged at 10,000×g for 15 minutes. The supernatant thereof was further centrifuged at 90,000×g for 40 minutes. The membrane precipitate thereby obtained was suspended in a buffer solution of 5 mM HEPES/Tris, pH 7.4, at a concentration of 3.3 mg/ml. Then, 16 μl of this membrane suspension was added to 340 μl of 50 mM tris/HCl buffer, pH 7.4, containing […] calcium chloride, 10 μM magnesium chloride, 0.1 mM PMSF, 1 μM pepstatin A, 2 μM leupeptin, 1 mM 1,10-phenanthroline and 0.1% bovine serum albumin. […] These mixtures were incubated at 25° C. for 4 hours, then subjected to filtration on a glass filter GF/C and then washed with 5 mM HEPES/Tris, pH 7.4, containing 0.3% bovine serum albumin. […] [formula] Each test was performed in triplicate.
The test compounds are indicated by compound Nos.

[1] = test system: human Girardi heart cells; experiment: Inhibition of endothelin-1-induced increase in intracellular calcium concentration (fura-2); type: cell-based; conditions: for inhibition of ET-1-induced increase in intracellular calcium concentration: 1.1 μM compound given 5 minutes before 100 nM ET-1, fura-2-loaded cells; for effect on the intracellular calcium concentration itself: compound alone, fura-2-loaded human Girardi heart cells
Method: Inhibitory activities of test compounds against endothelin-1-induced increase in intracellular calcium concentration of human Girardi heart cells
Antagonism of test compounds to endothelin-1-induced increase in intracellular calcium concentration was evaluated in human Girardi heart cells (Dainippon Seiyaku Co., Ltd.).
Cultured human Girardi heart cells in Flask were harvested using 0.25% trypsin and 0.02% EDTA. The collected cells were washed with Dulbecco's modification eagle medium containing 20 mM Hepes and 0.3% BSA (pH 7.4, D medium). Then the cells were suspended in D medium and incubated with 2 μM of fura-2 acetoxymethyl ester at 37° C. for 30 minutes. The cell suspensions were diluted with a 10-fold volume of D medium and incubated for 20 minutes. The fura-2-loaded cells were collected by centrifugation and resuspended in Krebs-Henseleit Hepes buffer (pH 7.4). The resultant suspension in a cuvette was continuously stirred at 37° C. throughout the following measurement process. Each test compound or vehicle was given 5 minutes before the addition of 100 nM ET-1, and fluorescence intensity at emission wavelength of 510 nm and excitation wavelength of 340 and 380 nm was monitored with a JASCO CAF-100 spectrofluorometer (Japan), and [Ca^2+ ]i values were calculated according to the reported method (G. Grynkiewicz et al., J. Biol. Chem. 260, 3440-3450 (1985)).

ETA receptors = target: T2, ETA receptors (Sus scrofa, UniProt Q29010); experiment: 125I-ET-1 binding inhibition to porcine aorta membrane suspension; conditions: 1.1 μM; porcine aorta membrane suspension containing a large amount of ETA receptors
T2 construct: porcine aorta membrane suspension containing a large amount of ETA receptors; from tissue; host or cells: porcine aorta membrane suspension
T2 sequence (Q29010 21-427): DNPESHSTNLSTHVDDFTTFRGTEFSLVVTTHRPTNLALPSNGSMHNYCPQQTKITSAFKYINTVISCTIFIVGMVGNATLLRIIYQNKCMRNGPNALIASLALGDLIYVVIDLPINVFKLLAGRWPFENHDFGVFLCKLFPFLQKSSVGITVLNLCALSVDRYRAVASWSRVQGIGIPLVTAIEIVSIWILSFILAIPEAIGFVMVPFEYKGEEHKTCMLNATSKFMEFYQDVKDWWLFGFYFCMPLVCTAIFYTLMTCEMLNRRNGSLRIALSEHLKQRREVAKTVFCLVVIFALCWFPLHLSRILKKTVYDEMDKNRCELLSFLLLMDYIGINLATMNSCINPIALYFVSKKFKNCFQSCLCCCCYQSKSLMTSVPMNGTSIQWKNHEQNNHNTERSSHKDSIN

inhibition at 1.1 µM (ETB receptor) [%]	Molecule	other results
96	CCCC[C@@H](NC(=O)[C@@H](Cc1c(C#N)[nH]c2ccccc12)NC(=O)[C@@H](NC(=O)N1C(C)CCCC1C)C(C)C)C(=O)O (stereo partly drawn) [Compound 1]	inhibition of ET-1-induced increase in intracellular calcium concentration [1]: 94%; effect on the intracellular calcium concentration itself [1]: no effect
99	CCCC[C@@H](NC(=O)[C@@H](Cc1c(C#N)[nH]c2ccccc12)NC(=O)[C@H](CC(C)C)NC(=O)N1C(C)CCCC1C)C(=O)O (stereo partly drawn) [Compound 2]	–
99	CCCC[C@@H](NC(=O)[C@@H](Cc1c(C#N)[nH]c2ccccc12)NC(=O)[C@H](CC(C)(C)C)NC(=O)N1C(C)CCCC1C)C(=O)OC (stereo partly drawn) [Compound 3]	–
100	CCCC[C@@H](NC(=O)[C@@H](Cc1c(C#N)[nH]c2ccccc12)NC(=O)[C@H](CC(C)(C)C)NC(=O)N1C(C)CCCC1C)C(=O)O (stereo partly drawn) [Compound 4]	–
96	CCC[C@@H](NC(=O)[C@@H](Cc1c(C#N)[nH]c2ccccc12)NC(=O)[C@@H](NC(=O)N1C(C)CCCC1C)C1CCCC1)C(=O)OC (stereo partly drawn) [Compound 7]	–
96	CCC[C@@H](NC(=O)[C@@H](Cc1c(C#N)[nH]c2ccccc12)NC(=O)[C@@H](NC(=O)N1C(C)CCCC1C)C1CCCC1)C(=O)O (stereo partly drawn) [Compound 8]	–
100	CCC[C@@H](NC(=O)[C@@H](Cc1c(C#N)[nH]c2ccccc12)NC(=O)[C@@H](NC(=O)N1C(C)CCCC1C)C1CCCC1)C(=O)NC (stereo partly drawn) [Compound 9]	–
65	COC(=O)C[C@H]1NC(=O)[C@@H](Cc2c(C#N)[nH]c3ccccc23)NC(=O)[C@H](CC(C)C)NC(=O)[C@@H](C(C)(C)SC)NC(=O)[C@@H]2CCCN2C1=O [Compound 10] (cyclo(L[X1][dD](OMe)P[dPen](Me)))	–
97	CSC(C)(C)[C@H]1NC(=O)[C@@H]2CCCN2C(=O)[C@@H](CC(=O)O)NC(=O)[C@@H](Cc2c(C#N)[nH]c3ccccc23)NC(=O)[C@H](CC(C)C)NC1=O [Compound 11] (cyclo(L[X1][dD]P[dPen](Me)))	inhibition of ET-1-induced increase in intracellular calcium concentration [1]: 69%; effect on the intracellular calcium concentration itself [1]: no effect
78	CC(C)C[C@@H]1NC(=O)[C@@H](C(C)C)NC(=O)[C@@H]2CCCN2C(=O)[C@@H](CC(=O)O)NC(=O)[C@@H](Cc2c(C#N)[nH]c3ccccc23)NC1=O [Compound 12] (cyclo(L[X1][dD]P[dV]))	–
–	cyclo(-DTrp-DAsp-Pro-DThg-Leu-) [compound 6, reference compound]	125I-endothelin-1 binding inhibition (ETB receptor): 11%; 125I-ET-1 binding inhibition (ETA receptors): 82%
–	cyclo(-DTrp-DCys(O3 Na)-Pro-DVal-Leu-) [compound 5, reference compound]	125I-endothelin-1 binding inhibition (ETB receptor): 0.6%; 125I-ET-1 binding inhibition (ETA receptors): 85%
